Assay results: US20260001914A1, “MACROCYCLIC PEPTIDES TARGETING KRAS” (Merck Sharp & Dohme LLC, priority 2022, published 2026)
*1 amine or outer side, *2 acyl side, *3 side chain or, on linkers, in order; H or OH if unused. Where a SMILES comes first, the peptide text is derived from it. Bridges are numbered along the chain shown (N, C = ends). [ ]: non-standard residue; d: D form. Phe(4-guanidino) = N=C(N)Nc1ccc(C[C@H](N)C(=O)O)cc1; X19 = C[C@H](c1ccccc1)[C@@H](C(=O)[*:2])N(C)[*:1]; Ala(pyrimidin-5-yl) = N[C@@H](Cc1cncnc1)C(=O)O; Gly(N-(CH2)3-guanidino) = N=C(N)NCCCNCC(=O)O; X8 = CN([C@@H](Cc1ccc(F)nc1)C(=O)[*:2])[*:1]; Ala(thiazol-5-yl) = N[C@@H](Cc1cncs1)C(=O)O; X39 = CN([C@@H](Cc1cccnc1F)C(=O)[*:2])[*:1]; X43 = CN([C@@H](Cc1cnccc1F)C(=O)[*:2])[*:1]; X45 = CN([C@@H](Cc1ccncc1F)C(=O)[*:2])[*:1]; 3Pal(6-OMe) = COc1ccc(C[C@H](N)C(=O)O)cn1; X3 = CN([C@@H](Cc1cncnc1)C(=O)[*:2])[*:1]; X11 = CC(C)(F)CC[C@H](N[*:1])C(=O)[*:2]; Ala(cPent) = N[C@@H](CC1CCCC1)C(=O)O; Phe(2-F) = N[C@@H](Cc1ccccc1F)C(=O)O; X1 = O=C(C12CC(CN[*:1])(C1)C2)[*:2]; NMeLys(Me) = CNCCCC[C@H](NC)C(=O)O; Ala(cPr) = N[C@@H](CC1CC1)C(=O)O; NMeF = CN[C@@H](Cc1ccccc1)C(=O)O; PhLac = O=C(O)[C@@H](O)Cc1ccccc1; Ahp(2) = CCCCC[C@H](N)C(=O)O; Cba = N[C@@H](CC1CCC1)C(=O)O; hLeu = CC(C)CC[C@H](N)C(=O)O; hLys = NCCCCC[C@H](N)C(=O)O; αMeC = C[C@](N)(CS)C(=O)O; NMeA = CN[C@@H](C)C(=O)O; Nle = CCCC[C@H](N)C(=O)O

target: KRAS-G12D protein (Homo sapiens, UniProt P01116, G12D); test: SOS-mediated nucleotide exchange assay (BODIPY-GDP / Tb-streptavidin TR-FRET); format: biochemical
Sequence (P01116 1-188 isoform P01116-2 G12D): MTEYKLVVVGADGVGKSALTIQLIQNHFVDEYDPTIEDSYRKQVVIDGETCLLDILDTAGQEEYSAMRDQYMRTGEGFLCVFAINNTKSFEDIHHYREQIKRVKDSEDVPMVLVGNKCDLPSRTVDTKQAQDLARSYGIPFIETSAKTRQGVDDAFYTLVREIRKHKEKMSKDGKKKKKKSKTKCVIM

Row | Compound | EC50 [nM]
1 | CC(C)CC[C@@H]1NC(=O)[C@H](Cc2ccccc2F)NC(=O)[C@H](CC2CCCC2)NC(=O)[C@H](Cc2cncnc2)NC(=O)[C@H](C)N(C)C(=O)[C@H](Cc2ccccc2)OC(=O)C23CC(CNC(=O)[C@H](Cc4cncnc4)N(C)C1=O)(C2)C3 [compound 335, cyclo(FLac-NMeA-PyrimAla-cPeA-Phe2F-hL-NMeAlaPyrim-amBCP)] (cyclo([Ala(cPent)][Phe(2-F)][hLeu][X3][X1][PhLac][NMeA][Ala(pyrimidin-5-yl)])) | 1
2 | CC(C)CC[C@@H]1NC(=O)[C@H](Cc2ccccc2F)NC(=O)[C@H](CC2CC2)NC(=O)[C@H](Cc2cncnc2)NC(=O)[C@H](C)N(C)C(=O)[C@H](Cc2ccccc2)OC(=O)C23CC(CNC(=O)[C@H](Cc4cccnc4F)N(C)C1=O)(C2)C3 [compound 336, cyclo(FLac-NMeA-PyrimAla-cPrA-Phe2F-hL-NMe3Pal2F-amBCP)] (cyclo([Ala(cPr)][Phe(2-F)][hLeu][X39][X1][PhLac][NMeA][Ala(pyrimidin-5-yl)])) | 5
3 | CC(C)CC[C@@H]1NC(=O)[C@H](Cc2ccccc2F)NC(=O)[C@H](CC2CC2)NC(=O)[C@H](Cc2cncnc2)NC(=O)[C@H](C)N(C)C(=O)[C@H](Cc2ccccc2)OC(=O)C23CC(CNC(=O)[C@H](Cc4ccncc4F)N(C)C1=O)(C2)C3 [compound 337, cyclo(FLac-NMeA-PyrimAla-cPrA-Phe2F-hL-NMe4Pal2F-amBCP)] (cyclo([Ala(cPr)][Phe(2-F)][hLeu][X45][X1][PhLac][NMeA][Ala(pyrimidin-5-yl)])) | 3
4 | CC(C)CC[C@@H]1NC(=O)[C@H](Cc2ccccc2F)NC(=O)[C@H](CC2CC2)NC(=O)[C@H](Cc2cncnc2)NC(=O)[C@H](C)N(C)C(=O)[C@H](Cc2ccccc2)OC(=O)C23CC(CNC(=O)[C@H](Cc4cnccc4F)N(C)C1=O)(C2)C3 [compound 338, cyclo(FLac-NMeA-PyrimAla-cPrA-Phe2F-hL-NMe3Pal6F-amBCP)] (cyclo([Ala(cPr)][Phe(2-F)][hLeu][X43][X1][PhLac][NMeA][Ala(pyrimidin-5-yl)])) | 2
5 | CC(C)CC[C@@H]1NC(=O)[C@H](Cc2ccccc2F)NC(=O)[C@H](CC2CC2)NC(=O)[C@H](Cc2cncnc2)NC(=O)[C@H](C)N(C)C(=O)[C@H](Cc2ccccc2)OC(=O)C23CC(CNC(=O)[C@H](Cc4ccc(F)nc4)N(C)C1=O)(C2)C3 [compound 339, cyclo(FLac-NMeA-PyrimAla-cPrA-Phe2F-hL-NMe3Pal4F-amBCP)] (cyclo([Ala(cPr)][Phe(2-F)][hLeu][X8][X1][PhLac][NMeA][Ala(pyrimidin-5-yl)])) | 1
6 | C[C@H](c1ccccc1)[C@H]1C(=O)NCC23CC(C2)(C3)C(=O)O[C@@H](Cc2ccccc2)C(=O)N(C)[C@@H](C)C(=O)N[C@@H](Cc2cncnc2)C(=O)N[C@@H](CC2CC2)C(=O)N[C@@H](Cc2ccccc2F)C(=O)N[C@@H](CCC(C)(C)F)C(=O)N1C [compound 341, cyclo(FLac-NMeA-PyrimAla-cPrA-Phe2F-hL3F-NMeRbMeF-amBCP)] (cyclo([Ala(cPr)][Phe(2-F)][X11][X19][X1][PhLac][NMeA][Ala(pyrimidin-5-yl)])) | 1370
7 | CCCCC[C@@H]1NC(=O)[C@H](Cc2ccc(OC)cc2)NC(=O)[C@H](CC2CCC2)NC(=O)[C@H](Cc2ccc(NC(=N)N)cc2)NC(=O)[C@H](CCCNC(=N)N)NC(=O)[C@H](Cc2ccccc2)NC(=O)CSC[C@@](C)(C(N)=O)NC(=O)[C@H](Cc2ccccc2)N(C)C1=O [compound 346, cyclo(F-R-Phe4Gn-cBuA-TyrOMe-Ahp-NMeF-aMeCl-ClAc)] ({CH2CO}-FR[Phe(4-guanidino)][Cba]Y(Me)[Ahp(2)][NMeF][αMeC]-NH2; thioether N-8) | 1.24
8 | CCCCC[C@@H]1NC(=O)[C@H](Cc2ccc(OC)cc2)NC(=O)[C@H](CC2CCC2)NC(=O)[C@H](Cc2cccnc2)NC(=O)[C@H](CCCNC(=N)N)NC(=O)[C@H](Cc2ccccc2)NC(=O)CSC[C@@](C)(C(N)=O)NC(=O)[C@H](Cc2ccccc2)N(C)C1=O [compound 347, cyclo(F-R~3Pal-cBuA-TyrOMe-Ahp-NMeF-aMeCl-ClAc)] | 5.72
9 | CCCCC[C@@H]1NC(=O)[C@H](Cc2ccc(OC)cc2)NC(=O)[C@H](CC2CCC2)NC(=O)[C@H](CCCCCN)NC(=O)[C@H](CCCNC(=N)N)NC(=O)[C@H](Cc2ccccc2)NC(=O)CSC[C@@](C)(C(N)=O)NC(=O)[C@H](Cc2ccccc2)N(C)C1=O [compound 348, cyclo(F-R-hK-cBuA-TyrOMe-Ahp-NMeF-aMeCl-ClAc)] ({CH2CO}-FR[hLys][Cba]Y(Me)[Ahp(2)][NMeF][αMeC]-NH2; thioether N-8) | 45.8
10 | CCCCC[C@@H]1NC(=O)[C@H](Cc2ccc(OC)cc2)NC(=O)[C@H](CCCC)NC(=O)[C@H](Cc2ccc(NC(=N)N)cc2)NC(=O)[C@H](CCCNC(=N)N)NC(=O)[C@H](Cc2ccccc2)NC(=O)CSC[C@H](C(N)=O)NC(=O)[C@H](Cc2ccccc2)N(C)C1=O [compound 350, cyclo(F-R-Phe4Gn-Nle-TyrOMe-Abp-NMeF-dCl-ClAc)] ({CH2CO}-FR[Phe(4-guanidino)][Nle]Y(Me)[Ahp(2)][NMeF][dC]-NH2; thioether N-8) | 35.4
11 | CCCCC[C@@H]1NC(=O)[C@H](Cc2ccc(OC)cc2)NC(=O)[C@H](CC2CCC2)NC(=O)[C@H](Cc2ccc(NC(=N)N)cc2)NC(=O)[C@H](CCCNC(=N)N)NC(=O)[C@H](Cc2ccccc2)NC(=O)CSC[C@H](C(N)=O)NC(=O)[C@H](Cc2ccccc2)N(C)C1=O [compound 352, cyclo(F-R-Phe4Gn-cBuA-TyrOMe-Ahp-NMeF-dCl-ClAc)] ({CH2CO}-FR[Phe(4-guanidino)][Cba]Y(Me)[Ahp(2)][NMeF][dC]-NH2; thioether N-8) | 4.92
12 | CCCCC[C@@H]1NC(=O)[C@H](Cc2ccc(OC)cc2)NC(=O)[C@H](CC2CCC2)NC(=O)[C@H](Cc2ccc(NC(=N)N)cc2)NC(=O)[C@H](CCCCNC)N(C)C(=O)[C@H](Cc2ccccc2)NC(=O)CSC[C@@](C)(C(N)=O)NC(=O)[C@H](Cc2ccccc2)N(C)C1=O [compound 360, cyclo(F-NMeLysMe-Phe4Gn-cBuA-TyrOMe-Ahp-NMeF-aMeCl-ClAc)] ({CH2CO}-F[NMeLys(Me)][Phe(4-guanidino)][Cba]Y(Me)[Ahp(2)][NMeF][αMeC]-NH2; thioether N-8) | 291
13 | CCCCC[C@@H]1NC(=O)[C@H](Cc2ccc(OC)cc2)NC(=O)[C@H](CC2CCC2)NC(=O)[C@H](Cc2ccc(NC(=N)N)cc2)NC(=O)CN(CCCNC(=N)N)C(=O)[C@H](Cc2ccccc2)NC(=O)CSC[C@@](C)(C(N)=O)NC(=O)[C@H](Cc2ccccc2)N(C)C1=O [compound 361, cyclo(F-NGnG-Phe4Gn-cBuA-TyrOMe-Ahp-NMeF-aMeCl-ClAc)] ({CH2CO}-F[Gly(N-(CH2)3-guanidino)][Phe(4-guanidino)][Cba]Y(Me)[Ahp(2)][NMeF][αMeC]-NH2; thioether N-8) | 37
14 | CCCCC[C@@H]1NC(=O)[C@H](Cc2ccc(OC)cc2)NC(=O)[C@H](CC2CCC2)NC(=O)[C@H](Cc2ccn(C)n2)NC(=O)[C@H](CCCNC(=N)N)NC(=O)[C@H](Cc2ccccc2)NC(=O)CSC[C@@](C)(C(N)=O)NC(=O)[C@H](Cc2ccccc2)N(C)C1=O [compound 362, cyclo(F-R-MePyzAla-cBuA-TyrOMe-Ahp-NMeF-aMeCl-ClAc)] | 1810
15 | CCCCC[C@@H]1NC(=O)[C@H](Cc2ccc(OC)cc2)NC(=O)[C@H](CC2CCC2)NC(=O)[C@H](Cc2cncs2)NC(=O)[C@H](CCCNC(=N)N)NC(=O)[C@H](Cc2ccccc2)NC(=O)CSC[C@@](C)(C(N)=O)NC(=O)[C@H](Cc2ccccc2)N(C)C1=O [compound 363, cyclo(F-R-TZAla-cBuA-TyrOMe-Ahp-NMeF-aMeCl-ClAc)] ({CH2CO}-FR[Ala(thiazol-5-yl)][Cba]Y(Me)[Ahp(2)][NMeF][αMeC]-NH2; thioether N-8) | 13.2
16 | CCCCC[C@@H]1NC(=O)[C@H](Cc2ccc(OC)cc2)NC(=O)[C@H](CC2CCC2)NC(=O)[C@H](Cc2ccc(C)nc2)NC(=O)[C@H](CCCNC(=N)N)NC(=O)[C@H](Cc2ccccc2)NC(=O)CSC[C@@](C)(C(N)=O)NC(=O)[C@H](Cc2ccccc2)N(C)C1=O [compound 364, cyclo(F-R-4Me3Pal-cBuA-TyrOMe-Ahp-NMeF-aMeCl-ClAc)] | 33.5
17 | CCCCC[C@@H]1NC(=O)[C@H](Cc2ccc(OC)cc2)NC(=O)[C@H](CC2CCC2)NC(=O)[C@H](Cc2ccc(OC)nc2)NC(=O)[C@H](CCCNC(=N)N)NC(=O)[C@H](Cc2ccccc2)NC(=O)CSC[C@@](C)(C(N)=O)NC(=O)[C@H](Cc2ccccc2)N(C)C1=O [compound 365, cyclo(F-R-40Me3Pal-cBuA-TyrOMe-Ahp-NMeF-aMeCl-ClAc)] ({CH2CO}-FR[3Pal(6-OMe)][Cba]Y(Me)[Ahp(2)][NMeF][αMeC]-NH2; thioether N-8) | 50.3
18 | CCCCC[C@@H]1NC(=O)[C@H](Cc2ccc(OC)cc2)NC(=O)[C@H](CC2CCCC2)NC(=O)[C@H](Cc2ccc(NC(=N)N)cc2)NC(=O)[C@H](CCCNC(=N)N)NC(=O)[C@H](Cc2ccccc2)NC(=O)CSC[C@@](C)(C(N)=O)NC(=O)[C@H](Cc2ccccc2)N(C)C1=O [compound 366, cyclo(F-R-Phe4Gn-cPeA-TyrOMe-Ahp-NMeF-aMeCl-ClAc)] ({CH2CO}-FR[Phe(4-guanidino)][Ala(cPent)]Y(Me)[Ahp(2)][NMeF][αMeC]-NH2; thioether N-8) | 4.01
19 | CCCCC[C@@H]1NC(=O)[C@H](Cc2ccc(OC)cc2)NC(=O)[C@H](CC2CCC2)NC(=O)[C@H](Cc2cncnc2)NC(=O)[C@H](CCCNC(=N)N)NC(=O)[C@H](Cc2ccccc2)NC(=O)CSC[C@@](C)(C(N)=O)NC(=O)[C@H](Cc2ccccc2)N(C)C1=O [compound 367, cyclo(F-R-PyrimAla-cBuA-TyrOMe-Ahp-NMeF-aMeCl-ClAc)] ({CH2CO}-FR[Ala(pyrimidin-5-yl)][Cba]Y(Me)[Ahp(2)][NMeF][αMeC]-NH2; thioether N-8) | 4.05
20 | CCCCC[C@@H]1NC(=O)[C@H](Cc2ccc(OC)cc2)NC(=O)[C@H](CC2CCC2)NC(=O)[C@H](Cc2ccc(=O)[nH]c2)NC(=O)[C@H](CCCNC(=N)N)NC(=O)[C@H](Cc2ccccc2)NC(=O)CSC[C@@](C)(C(N)=O)NC(=O)[C@H](Cc2ccccc2)N(C)C1=O [compound 369, cyclo(F-R-4CO3Pal-cBuA-TyrOMe-Abp-NMeF-aMeCl-ClAc)] | 19.4
